Molecular target: T1, KATP channels (Homo sapiens, UniProt O60706+Q14654)
T1 construct: TE671 human medulloblastoma cells were obtained from ATCC; host or cells: TE671 human medulloblastoma cells
Experiment: Potassium Channel Assay (FLIPR membrane potential dye, TE671 cells)
Assay type: cell-based
Settings: TE671 human medulloblastoma cells, room temperature, fluorescence change monitored for 3 minutes
Experimental: TE671 human medulloblastoma cells were obtained from ATCC and grown in Dulbecco's modified Eagle's medium (DMEM) supplemented with 10% fetal bovine serum, 100 U/ml penicillin and 100 U/ml streptomycine.
The day before testing, the cells were plated in black 96-well plates at 50K/well. On the day of testing, the growth media was removed, then 100 μl of FLIPR buffer (20 mM HEPES, 120 mM NaCl, 2 mM KCl, 2 mM CaCl2, 1 mM MgCl2, 5 mM Glucose) and 100 μl of Membrane Potential Assay Dye (Molecular Devices) dissolved in FLIPR buffer were added to each well. The cells were incubated at room temperature for 15 to 30 min.
The effect of test compounds on KATP channels were evaluated on a fluorometric imaging plate reader (FLIPR, Molecular Devices) at room temperature. After a baseline period, 50 μl of 5× stock solution of test compound prepared in FLIPR buffer was added and fluorescence change was monitored for 3 minutes. After this reading, glyburide, a KATP channel blocker, was added to a final concentration of 5 μM to check the specificity of the test compound as a KATP channel opener. Hyperpolarization resulting from KATP channel opening was observed as a decrease in fluorescence intensity.
Representative compounds of the present invention were tested according to the procedure described above, with results as listed in Table 7 below.

T1 sequence (Q14654 whole entry): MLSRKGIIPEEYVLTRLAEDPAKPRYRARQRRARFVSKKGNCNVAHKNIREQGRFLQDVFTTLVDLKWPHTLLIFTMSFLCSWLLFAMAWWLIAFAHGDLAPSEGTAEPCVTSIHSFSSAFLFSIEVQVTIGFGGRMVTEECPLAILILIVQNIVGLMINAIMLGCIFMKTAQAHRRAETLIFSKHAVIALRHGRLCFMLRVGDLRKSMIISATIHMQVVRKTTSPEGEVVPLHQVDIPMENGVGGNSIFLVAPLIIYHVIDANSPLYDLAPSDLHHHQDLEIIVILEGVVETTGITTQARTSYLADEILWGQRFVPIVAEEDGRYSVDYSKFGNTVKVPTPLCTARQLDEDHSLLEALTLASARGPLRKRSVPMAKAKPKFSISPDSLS
T1 sequence (O60706 1-1549 isoform O60706-2): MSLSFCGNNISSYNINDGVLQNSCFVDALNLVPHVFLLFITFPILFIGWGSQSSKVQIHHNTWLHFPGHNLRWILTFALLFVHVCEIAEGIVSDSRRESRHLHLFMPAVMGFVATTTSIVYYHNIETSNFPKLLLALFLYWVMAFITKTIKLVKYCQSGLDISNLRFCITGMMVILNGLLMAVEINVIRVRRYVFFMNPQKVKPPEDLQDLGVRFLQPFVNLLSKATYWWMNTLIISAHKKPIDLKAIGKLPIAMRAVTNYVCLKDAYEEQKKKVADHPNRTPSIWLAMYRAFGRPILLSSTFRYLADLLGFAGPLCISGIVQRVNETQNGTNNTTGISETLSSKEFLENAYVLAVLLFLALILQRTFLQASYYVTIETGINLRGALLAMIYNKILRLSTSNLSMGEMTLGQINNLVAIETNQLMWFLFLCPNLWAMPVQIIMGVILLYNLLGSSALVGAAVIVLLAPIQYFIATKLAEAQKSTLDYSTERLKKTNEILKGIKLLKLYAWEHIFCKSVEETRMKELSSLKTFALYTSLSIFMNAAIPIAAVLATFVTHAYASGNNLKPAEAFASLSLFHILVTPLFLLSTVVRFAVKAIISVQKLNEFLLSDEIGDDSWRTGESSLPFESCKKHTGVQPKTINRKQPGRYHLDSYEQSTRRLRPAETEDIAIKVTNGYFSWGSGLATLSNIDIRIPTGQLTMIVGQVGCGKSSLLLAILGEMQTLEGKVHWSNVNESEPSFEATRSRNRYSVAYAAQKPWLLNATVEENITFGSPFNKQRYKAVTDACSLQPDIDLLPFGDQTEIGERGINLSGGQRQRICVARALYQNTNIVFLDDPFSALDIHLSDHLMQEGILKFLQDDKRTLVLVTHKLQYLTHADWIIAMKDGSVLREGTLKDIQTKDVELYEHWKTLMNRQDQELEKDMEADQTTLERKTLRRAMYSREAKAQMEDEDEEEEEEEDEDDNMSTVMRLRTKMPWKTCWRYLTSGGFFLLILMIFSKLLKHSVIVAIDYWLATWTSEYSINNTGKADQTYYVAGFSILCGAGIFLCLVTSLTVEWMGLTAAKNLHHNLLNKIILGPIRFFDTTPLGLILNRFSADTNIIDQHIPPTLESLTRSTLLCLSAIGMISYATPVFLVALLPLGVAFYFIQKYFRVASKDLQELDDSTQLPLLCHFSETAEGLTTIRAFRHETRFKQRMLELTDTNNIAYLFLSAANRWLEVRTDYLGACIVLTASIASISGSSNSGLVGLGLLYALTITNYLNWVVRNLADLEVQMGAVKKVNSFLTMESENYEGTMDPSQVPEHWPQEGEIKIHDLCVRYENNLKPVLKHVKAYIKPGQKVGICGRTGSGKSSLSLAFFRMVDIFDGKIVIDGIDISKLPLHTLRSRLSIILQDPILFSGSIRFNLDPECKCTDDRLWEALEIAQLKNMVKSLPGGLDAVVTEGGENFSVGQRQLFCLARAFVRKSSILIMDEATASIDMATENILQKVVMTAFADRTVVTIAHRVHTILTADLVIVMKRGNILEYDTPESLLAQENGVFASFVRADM

| SMILES | EC50 [µM] | % Stimulation [%] |
| --- | --- | --- |
| N#Cc1cccc(-c2ccncc2C(O)c2cccc(F)c2)c1 (stereo not shown) [Compound 21, 3-{3-[(3-Fluoro-phenyl)-hydroxy-methyl]-pyridin-4-yl}-benzonitrile] | 23.2 |  |
| N#Cc1cccc(-c2ccncc2C(O)c2ccc(F)c(F)c2)c1 (stereo not shown) [Compound 23, 3-{3-[(3,4-Difluoro-Phenyl)-hydroxy-methyl]-pyridin-4-yl}-benzonitrile] | 11.4 |  |
| N#Cc1cccc(-c2ccncc2C(O)c2cc(Cl)cc(Cl)c2)c1 (stereo not shown) [Compound 25, 3-{3-[(3,5-Dichloro-phenyl)-hydroxy-methyl]-pyridin-4-yl}benzonitrile] | 9.82 |  |
| CC(C)(C)c1ccc(C(O)c2cnccc2-c2cccc(C#N)c2)cc1 (stereo not shown) [Compound 27, 3-{3-[(4-tert-Butyl-phenyl)-hydroxy-methyl]-pyridin-4-yl}-benzonitrile] | 10.7 |  |
| CCOC(=O)c1cnc2cc(C(F)(F)F)ccc2c1-c1ccc(-c2ccccc2)cc1 [Compound 5, 4-Biphenyl-4-yl-7-trifluoromethyl-quinoline-3-carboxylic acid ethyl ester] | > 30 | 33 |
| N#Cc1cccc(-c2ccncc2C(O)c2ccc(Cl)cc2)c1 (stereo not shown) [Compound 26, 3-{3-[(4-Chloro-phenyl)-hydroxy-methyl]-pyridin-4-yl}-benzonitrile] | 10.2 |  |
| CCOC(=O)c1cnc2cc(C(F)(F)F)ccc2c1-c1cc(C(F)(F)F)ccc1F [Compound 8, 4-(2-Fluoro-5-trifluoromethyl-phenyl)-7-trifluoromethyl-quinoline-3-carboxylic acid ethyl ester] | > 30 | 31 |

The next lines start with the values.

| EC50 [µM] | % Stimulation [%] | SMILES |
| --- | --- | --- |
| > 30 | 14 | COc1ccc(CO)cc1-c1ccncc1CO [Compound 58] |
| 15 |  | Cc1ccccc1C(O)c1cnccc1-c1cccc(C#N)c1 (stereo not shown) [Compound 31, 3-{3-[Hydroxy-(2-methyl-phenyl)-methyl]-pyridin-4-yl}-benzonitrile] |
| 13.7 |  | COc1cccc(C(O)c2cnccc2-c2cccc(C#N)c2)c1 (stereo not shown) [Compound 29, 3-{3-[Hydroxy-(3-methoxy-phenyl)-methyl]-pyridin-4-yl}-benzonitrile] |
| > 30 | 16 | N#Cc1cccc(C(O)c2ccncc2CO)c1 (stereo not shown) [Compound 57, 3-[Hydroxy-(3-hydroxymethyl-pyridin-4-yl)-methyl]-benzonitrile] |
| 17.4 |  | O=C(c1ccccc1)c1ccncc1C(O)c1ccccc1 (stereo not shown) [Compound 43, [3-(Hydroxy-phenyl-methyl)-pyridin-4-yl]-phenyl-methanone] |

Source: US7671065B2, “Pyridine derivatives as potassium ion channel openers” (Janssen Pharmaceutica N.V., priority 2005, dated 2010)
